Results from paper PMC10945480 (Journal of Medicinal Chemistry, 2024).
Like-named read-outs stand apart in the source and are kept apart here.

How the values were obtained:
washed human platelets = assay: Collagen-induced platelet aggregation; format: cell-based; details: Platelet; washed human platelets, collagen (5 μg/mL)
Method in brief: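 Washed platelets from ACD-anticoagulated blood of healthy donors, stirred at 1200 rpm, 37 °C in a turbidimetric aggregometer. Aggregation triggered by U46619 or collagen, scored as maximal rise in light transmission.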

ERp57 (PDIA3) = biological target: T1, ERp57 (PDIA3) (Homo sapiens, UniProt P30101); assay: ERp57 reductase assay (Di-E-GSSG); format: biochemical
T1 sequence (P30101 25-505): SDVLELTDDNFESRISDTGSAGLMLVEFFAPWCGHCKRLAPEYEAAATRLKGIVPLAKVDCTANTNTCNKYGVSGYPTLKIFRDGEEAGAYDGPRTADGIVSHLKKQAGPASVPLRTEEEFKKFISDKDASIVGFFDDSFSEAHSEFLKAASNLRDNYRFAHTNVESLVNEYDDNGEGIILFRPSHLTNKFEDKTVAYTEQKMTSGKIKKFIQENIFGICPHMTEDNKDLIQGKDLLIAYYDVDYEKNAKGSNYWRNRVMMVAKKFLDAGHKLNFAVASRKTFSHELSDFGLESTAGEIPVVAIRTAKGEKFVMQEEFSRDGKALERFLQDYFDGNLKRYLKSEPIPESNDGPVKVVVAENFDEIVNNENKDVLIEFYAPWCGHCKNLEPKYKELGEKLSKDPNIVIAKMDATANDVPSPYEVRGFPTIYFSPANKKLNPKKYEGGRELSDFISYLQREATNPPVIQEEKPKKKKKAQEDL
Text: In addition to PDI, ERp57 (PDIA3) and ERp72 (PDIA4) are two other major members of the PDI family in both platelets and A549 cells.[62],[63]

[1] = system: washed human platelets coincubated with A549, MDA-MB-231, or RPMI8226 cancer cells; assay: Tumor cell-induced platelet aggregation (TCIPA); format: cell-based; details: 2 μM; A549, MDA-MB-231, RPMI8226 cells, in the presence of plasma
[2] = system: washed human platelets coincubated with A549 cancer cells; assay: Tumor cell-induced platelet secretion (PDGF, ATP); format: cell-based
Protocol: (§1) (a) Washed human platelets were coincubated with A549 cancer cells under the same conditions as described in Figure 4. Secretion of PDGF and ATP were determined with the enzyme-linked immunosorbent assay (ELISA) and bioluminescent assay, respectively. (b) A549 cancer cells were coincubated with washed human platelets at 37 °C and 5% CO2 in a cell culture incubator for 48 h. After washing with PBS, the numbers of viable cancer cells were determined by trypan blue exclusion. Data are mean ± SEM of at least three independent experiments.
Washed human platelets were coincubated with cancer cells under the same conditions as described in the TCIPA assay. After a 25 min incubation in the aggregometer, the samples were centrifuged at 13,000g for 1 min. The concentrations of PDGF-BB and ATP in the supernatants were determined using an ELISA kit (Abcam, Cambridge, UK) and an ATP bioluminescent assay kit (Sigma, MO, USA), respectively.[52]

A549 cancer cells = assay: Platelet-enhanced tumor cell proliferation; format: cell-based, human; details: A549 plus platelets, 48 h, 0.5 to 2 μM
Protocol: In order to examine platelet-enhanced cancer cell growth, A549 cancer cells were coincubated with platelets for 48 h.
as §1, with “Figure 5 Inhibitory effects of JUG derivatives 18 and 22 on tumor cell-induced platelet secretion and platelet-enhanced tumor cell proliferation. (a)” for “(a)”, “experiments. In (a), *P < 0.05; **P < 0.01; ***P < 0.001 as compared with vehicle control (DMSO). In (b), *P < 0.05; **P < 0.01; ***P < 0.001 as compared with A549 cells plus platelets.” for “experiments.”
A549 cells (1 × 10^4 cells/well) were seeded in a 96-well plate and coincubated with wash human platelets (1 × 10^7 cells/well) containing with 0.375% plasma for 48 h at 37 °C and 5% CO2 in a cell culture incubator. After washing with phosphate buffered saline, the numbers of viable cancer cells were determined by trypan blue exclusion.

glioma U87 = assay: Cell viability, resazurin assay, U87; details: Homo sapiens, 24 h, read-out: U87 IC50
Protocol: (§2) Cells were maintained in a humidified incubator at 37 °C in 5% CO2, and cell viability was determined with the resazurin assay (Cayman Chemical, USA) after the incubation with compounds for indicated concentrations and times or DMSO as control.[72]

lung cancer A549 = assay: Cell viability, resazurin assay, A549; details: Homo sapiens, A549, 24 h, read-out: A549 IC50
Protocol: as §2

[3] = system: multiple myeloma RPMI8226; assay: Cell viability, resazurin assay, RPMI8226; details: for IC50: Homo sapiens
Protocol: as §2

[4] = system: human vascular endothelial EA.hy926 cells; assay: Cell viability, resazurin assay, EA.hy926; details: EA.hy 926, 24 h, read-out: EAhy926 IC50
Protocol: as §2

breast cancer MDA-MB-231 = assay: Cell viability, resazurin assay, MDA-MB-231; details: Homo sapiens, MDA-MB-231, 24 h, read-out: MDA-MB-231 IC50
Protocol: as §2

[5] = biological target: purified human recombinant PDI (rPDI) (Homo sapiens, UniProt P07237); assay: Recombinant PDI reductase activity (Di-E-GSSG assay)
Sequence of purified human recombinant PDI (rPDI) (P07237 18-508): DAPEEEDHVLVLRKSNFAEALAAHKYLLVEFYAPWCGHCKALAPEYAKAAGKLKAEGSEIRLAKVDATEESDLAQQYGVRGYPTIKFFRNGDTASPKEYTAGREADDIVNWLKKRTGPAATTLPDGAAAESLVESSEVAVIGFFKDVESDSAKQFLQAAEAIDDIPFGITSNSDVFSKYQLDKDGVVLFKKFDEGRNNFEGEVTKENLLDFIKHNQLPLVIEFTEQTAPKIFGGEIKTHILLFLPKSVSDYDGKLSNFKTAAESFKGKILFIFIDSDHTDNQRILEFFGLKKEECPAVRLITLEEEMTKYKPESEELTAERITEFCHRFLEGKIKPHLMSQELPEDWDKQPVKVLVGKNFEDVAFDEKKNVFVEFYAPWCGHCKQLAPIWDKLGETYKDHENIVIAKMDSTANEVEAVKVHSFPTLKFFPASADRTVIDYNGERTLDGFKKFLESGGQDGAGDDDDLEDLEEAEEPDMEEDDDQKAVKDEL
Protocol: In this assay, a nonfluorescent substrate, dieosin glutathione disulfide (Di-E-GSSG), was reduced into a fluorescent product eosin-glutathione (E-GSH) by platelet surface PDI in the presence of 5 μM dithiothreitol (DTT).

CC(=O)OC1O[C@H](CSC2=CC(=O)c3cccc(O)c3C2=O)[C@@H](OC(C)=O)C(OC(C)=O)[C@H]1OC(C)=O (stereo in doubt) [Compound 18, 2-(1,2,3,4-Tetra-O-acetyl-6-deoxy-6-thio-α-D-glucopyranose)-8-hydroxynaphthalene-1,4-dione]
IC50 (washed human platelets): 0.56 ± 0.17 µM | concentrations inhibiting ERp57 and ERp72 relative to PDI (ERp57 (PDIA3); ERp57 and ERp72 together, fold higher than required to inhibit PDI): 4 to 7 fold | IC50 (ERp57 (PDIA3); human recombinant, Di-E-GSSG): 6.98 ± 1.78 µM | prevention of TCIPA [1]: significantly prevented TCIPA | tumor cell-induced increase in extracellular PDGF and ATP (platelet secretion) [2]: reduced | platelet-enhanced cancer cell growth (A549 cancer cells): blunted platelet-enhanced cancer cell growth | IC50 (glioma U87): > 20 µM | IC50 (lung cancer A549): 36.8 ± 1.93 µM | S.I. (EAhy926/RPMI8226), selectivity index ([3]; 24 h IC50 ratio): 12.8 | IC50 ([3]; RPMI-8226, 24 h, read-out: RPMI8226 IC50): 0.57 ± 0.01 µM | IC50 ([3]; RPMI-8226, 72 h, read-out: RPMI8226 IC50, 72 h): 0.061 µM | IC50 [4]: 7.27 ± 0.08 µM | IC50 (breast cancer MDA-MB-231): 6.96 ± 0.47 µM | IC50 [5]: 1.87 ± 0.56 µM
